Test results: patent US6514998B1 (priority 1994, dated 2003)

Legend:
Pyricularia oryzae = format: in vivo; conditions: application rate 250 ppm; rice seedlings (Tai Nong 67) sprayed 24 h before infection; 6 days; untreated plants 70% attack
Fusarium culmorum = assay: Activity against Fusarium culmorum on wheat seedlings; format: in vivo; conditions: application rate 500 ppm; wheat seedlings (Kanzler) sprayed one day before infection; 6 days; untreated plants 60% attack
Experimental: On the following day, the plants were infected with a spore suspension of Fusarium culmorum. The plants treated in this way were incubated for 6 days at 22-24° C. and a relative atmospheric humidity of >90%. Assessment was carried out visually.

Botrytis cinerea = conditions: application rate 500 ppm; paprika seedlings (Neusiedler Ideal Elite) sprayed before infection; 5 days; untreated plants 80% attack

`COC(=O)N(OC)c1ccccc1COc1ncn(-c2ccccc2)n1` [Compound 2] was tested, and the “attack (visual assessment)” value (Pyricularia oryzae) was 3%, the “attack (visual assessment)” value (Fusarium culmorum) was 5% and the “attack (visual assessment)” value (Botrytis cinerea) was 5%.
